Experimental data reported in patent US5066671A, “Ellagic acid derivatives as phospholipase A2 inhibitors” (American Home Products Corporation, priority 1990, dated 1991).
pIC50: −log10 of the molar value. One block for each compound: values may come before it.

Key:
[1] = Derwent Publications 78-88538A; cited from earlier work
[2] = system: paw edema induced by the exogenous administration of PLA2; format: in vivo, male CD-1 mice
[3] = system: paw edema induced by the exogenous administration of PLA2; test: animal or person; format: in vivo, male CD-1 mice; details: for ED50 mg/kg p.o. at +10 min. (result in words) / % Change in Edema, 10 min: 10 min after PLA2 injection; for ED50 mg/kg p.o. at +10 min. (result in words): standard drugs; for ED50: Mus musculus, 10 min, read-out: ED50 mg/kg p.o. at +10 min.; for ED50 / ED50 mg/kg p.o. at +10 min.: po; for ED50 mg/kg p.o. at +10 min.: mouse, in vivo; for % Change in Edema, 30 min: 30 min after PLA2 injection; for % Change in Edema, 60 min: 60 min after PLA2 injection
Method: The ability of the compounds of the invention to inhibit paw edema induced by the exogenous administration of PLA2 is measured in the in vivo PLA2 murine paw edema assay.
The assay is carried out as follows:
Non-fasted, male CD-1 mice (8 weeks old; 31-36 grams) are placed in plastic boxes in groups of six. The right hind paw volume is measured using mercury plethysmography (zero time). Compounds are dosed orally (0.5 mL of 0.5% Tween80) 1 or 3 hours prior to PLA2 injection or intravenously (0.2 mL in 0.3% dimethylsulfoxide/saline) 3 minutes prior to PLA2 injection. A solution of purified PLA2, from the diamond back cotton mouth snake (A. piscivorus piscivorus) is prepared in saline at a concentration of 6 μg/mL. Fifty (50) μL (0.3 μg) of this PLA2 solution is injected subcutaneously into the right hind paw with a plastic 1 mL plastic syringe (27 gauge, 1" needle). Paw volume of the injected paw is measured again at 10 minutes, 30 minutes and 60 minutes after PLA2 injection. Animals are euthanized with CO2 at the completion of the study.
The paw edema is calculated by subtracting the zero time volume from the volume recorded at each time period. Mean paw edema for each treatment group is then calculated and expressed as (μL±S.E.). Drug effects are expressed as a percent change from control (vehicle) values. Statistical significance is determined by a oneway analysis of variance with LSD comparison to control (p<0.05). ED50 's are determined using repression analysis.

carrageenan paw edema = test: rat carrageenan paw edema assay; format: in vivo, male Sprague-Dawley rats; details: for ED50: Rattus norvegicus, po, 3 h, read-out: Oral ED50 (95% C.L.) mg/kg
Method: The compounds of the invention are tested in the rat carrageenan paw edema assay to determine their ability to inhibit the acute inflammatory response.
(§1) This assay is carried out as follows:
140-180 gm male Sprague-Dawley rats, in groups of 6 animals, are injected subcutaneously in the right paw with 0.1 ml of 1% carrageenan at zero time. Mercury plethysmographic readings (ml) of the paw are made at zero time and 3 hours later. Test compounds are suspended or dissolved in 0.5% methylcellulose and given perorally 1 hour prior to carrageenan administration.
The increase in paw volume (edema in ml) produced by the carrageenan is measured. Paw edema is calculated (3 hour volume minus zero time volume), and percent inhibition of edema is determined. Unpaired Student's t-test is used to determine statistical significance.

Hageman factor = details: Ratnoff et al., J. Lab. Clin. Med. 63, 359 (1964); cited from earlier work
[4] = system: synthesis of the arachidonic acid cyclooxygenase oxidation product TxB2; test: inhibition of TxB2 synthesis by rat polymorphonuclear leukocytes (cyclooxygenase activity); format: cell-based; details: rat PMN
Method: Rat polymorphonuclear leukocytes (PMNs) are obtained from female Wistar rats (150-200 g) which receive an injection of 6% glycogen (10 ml i.p.). Rats are sacrificed 18-24 hours post injection by CO2 asphyxiation and the elicited cells are harvested by peritoneal lavage using physiological saline (0.9% NaCl). The exudate is centrifuged at 400 xg for 10 minutes. The supernatant fluid is discarded and the cell pellet is resuspended to a concentration of 2.0×10^7 cells/mL in HBSS containing Ca^++ and Mg^++ and 10 μM L-cysteine.
To 1 mL aliquots of cell suspension, test drugs or vehicle are added, then preincubated at 37° C. for 10 minutes. A23187 (1 μM), [^3 H]-AA (3.0 μCi/mL) and unlabeled AA (1 μM) are then added and the samples are further incubated for 10 minutes. The reaction is terminated by centrifugation and pelleting cells. Supernatants are then analyzed by HPLC analysis on a 15 cm×4.6 mm ID supelcosil LC-18 (Supelco)(3M) column, using a two solvent system at a flow rate of 1.4 mL total flow as follows:
In this assay, the procedure of Example 1 is carried out as described. However, in order to determine cyclooxygenase activity, the samples are cochromatographed with authentic reference [^3 H]-TxB2.
The results are calculated as in Example 1 and presented below: […]

[5] = system: synthesis of LTB4 by rat glycogen-elicited polymorphonuclear leukocytes; test: inhibition of LTB4 synthesis by rat glycogen-elicited polymorphonuclear leukocytes (PMN); format: cell-based; details: Leukocyte
Human Synovial PLA2 = biological target: T1, Human Synovial PLA2 (Homo sapiens, UniProt P14555); test: in vitro isolated phospholipase A2 assay, human synovial fluid PLA2; format: biochemical; details: for pIC50: compounds of the invention, read-out: IC50 HSF (human synovial fluid)
T1 construct: Purified human synovial fluid; from tissue; host or cells: human synovial fluid (purified)
T1 sequence (P14555 21-144): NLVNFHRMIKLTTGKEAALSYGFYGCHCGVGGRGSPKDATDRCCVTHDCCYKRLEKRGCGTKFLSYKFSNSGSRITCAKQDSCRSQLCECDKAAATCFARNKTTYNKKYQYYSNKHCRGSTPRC
Method: (§2) The compounds of the invention are tested in an in vitro isolated phospholipase A2 assay to determine the ability of the test compounds to inhibit the release of arachidonic acid from an arachidonic acid-containing substrate by the action of phospholipase A2 enzyme from human and non-human sources.
as §1
(§3) Into a 15 mL polypropylene tube are added the following:
(§4) ^3 H-AA E.coli substrate^1
(§5) PLA2 25 Volume yielding 12%
(§6) 100 hydrolysis in 10 min.
(§7) *pre-incubate at room temperature 30 min prior to substrate addition.
(§8) ^5 Stock 10 mM prepared in dimethyl sulfoxide. Make 1:2 dilution with
(§9) dimethyl sulfoxide and add 1 μL to 100 μL assay tube.
(§10) ^ 6 Two human PLA2 enzymes are used: (a) Semipurified human
(§11) platelet acid extract PLA2 (in 10 mM sodium acetate buffer, pH 4.5).
(§12) Remove protein precipitate by centrifugation at about 2200 rpm for 10
(§13) minutes. (b) Purified human synovial fluid.
(§14) Incubate the 100 μL reaction mixture for 10 minutes at 37° C. in a shaking water bath. The reaction is terminated by the addition of 2 mL tetrahydrofuran, followed by vortexing. NH2 columns (100 μg/mL-Analytichem International) are conditioned with 0.5 mL tetrahydrofuran followed by 0.5 mL tetrahydrofuran/water (2 mL:0.1 mL, v/v).
(§15) The sample is loaded onto the columns and slowly drawn through them. The hydrolyzed arachidonic acid retained in the columns is eluted therefrom with 1 mL tetrahydrofuran/glacial acetic acid (2%). The arachidonic acid is transferred to scintillation vials and quantitated by β-counting analysis. A "total counts" sample is prepared by pipetting 25 μL ^3 H-arachidonate E. coli directly into a scintillation vial to which is added 1 mL tetrahydrofuran. 10 mL aquasol (scintillation cocktail) is added to all samples. [formula]

Human Platelet PLA2 = biological target: T2, Human Platelet PLA2 (Homo sapiens, UniProt P14555); test: in vitro isolated phospholipase A2 assay, human platelet PLA2; format: biochemical
T2 construct: platelet acid extract PLA2; from tissue; host or cells: human platelets (semipurified acid extract)
T2 sequence (P14555 21-144): T1 sequence (P14555 21-144)
Method: as §2, §1, §3, §4, §5, §6, §7, §8, §9, §10, §11, §12, §13, §14, §15

Compound: COc1c(O)cc2c(=O)oc3c(OC)c(O)cc4c(=O)oc1c2c34 [3,3'dimethyl ellagic acid]
antitumor activity [1]: antitumor activity

Compound: COc1cccc2c1cc([N+](=O)[O-])c1c(C(=O)O)cc3c(c12)OCO3 [Aristolochic Acid, reference compound]
inhibition only when coinjected with enzyme [2]: 30%
ED50 mg/kg p.o. at +10 min. (result in words) [3]: Not Active

Compound: CC(=O)Oc1ccccc1C(=O)O [Aspirin]
ED50 (carrageenan paw edema): 145 mg/kg

Compound: NC1=NN(c2cccc(C(F)(F)F)c2)CC1 [BW755C, reference compound]
ED50 [3]: 50 mg/kg

Compound: CN1CCC(=C2c3ccccc3C=Cc3ccccc32)CC1 [Cyproheptadine, reference compound]
ED50 [3]: 3.1 mg/kg

Compound: C[C@@H]1C[C@H]2[C@@H]3CCC4=CC(=O)C=C[C@]4(C)[C@@]3(F)[C@@H](O)C[C@]2(C)[C@@]1(O)C(=O)CO [Dexamethasone, reference compound]
ED50 mg/kg p.o. at +10 min. [3]: 10 mg/kg

Compound: O=c1oc2c(O)c(O)cc3c(=O)oc4c(O)c(O)cc1c4c23 [Example 1, 4, 4', 5, 5', 6, 6'-hexahydrodiphenic acid 2,6, 2', 6'-dilactone]
ability to activate Hageman factor (Hageman factor): ability to activate Hageman factor
inhibition at 10 µM ([4]; Leukocyte): 4%
inhibition at 10 µM [5]: 39%
% Inhibition, HSF (human synovial fluid) (Human Synovial PLA2; at 50 μM (footnote +), 50 µM): 89.5%
inhibition at 50 µM (Human Synovial PLA2; at 50 μM (footnote +), read-out: % Inhibition, HSF (human synovial fluid)): 86.5%
pIC50 (Human Synovial PLA2): 7.68
% Inhibition at 50 mg/kg (peroral) (carrageenan paw edema; 50 mg/kg peroral, 1 hour prior to carrageenan, edema at 3 hours): 37%
% Change in Edema, 10 min ([3]; 10 mg/kg i.v.): -22%
% Change in Edema, 30 min ([3]; 10 mg/kg i.v.): -64%
% Change in Edema, 60 min ([3]; 10 mg/kg i.v.): -18%
% Change in Edema, 10 min ([3]; 100 mg/kg p.o.): -35%
% Change in Edema, 30 min ([3]; 100 mg/kg p.o.): +4%
% Change in Edema, 60 min ([3]; 100 mg/kg p.o.): -73%
inhibition at 50 µM (Human Platelet PLA2; at 50 μM (footnote +), read-out: % Inhibition, HP (human platelet)): 38.8%

Compound: CC(=O)Oc1cc2c(=O)oc3c(OC(C)=O)c(OC(C)=O)cc4c(=O)oc(c1OC(C)=O)c2c34 [Example 2, Ellagic Acid Tetraacetate]
inhibition at 10 µM [5]: -31%
inhibition at 10 µM (Human Synovial PLA2; read-out: % Inhibition at 10 μM, HSF (human synovial fluid)): 90.7%
inhibition at 10 µM (Human Platelet PLA2; read-out: % Inhibition at 10 μM, HP (human platelet)): -16.6%

Compound: COc1ccc2c(c1)c(CC(=O)O)c(C)n2C(=O)c1ccc(Cl)cc1 [Indomethacin]
ED50 (carrageenan paw edema): 3.7 mg/kg

Compound: COc1ccc2cc([C@H](C)C(=O)O)ccc2c1 [Naproxen, reference compound]
ED50 mg/kg p.o. at +10 min. [3]: 18 mg/kg

% Inhibition (TxB2 synthesis) ([4]; at 10 μM): 9%
% Inhibition at 10 μM, HSF (human synovial fluid) (Human Synovial PLA2; at 10 μM): 95.6%
pIC50 (Human Synovial PLA2): 6.44
% Inhibition at 10 μM, HP (human platelet) (Human Platelet PLA2; at 10 μM): 0%
Compound: Ellagic Acid Diacetate [Example 3]

Compound: Luffarrellolide [reference compound]
inhibition only when coinjected with enzyme [2]: 30%
ED50 mg/kg p.o. at +10 min. (result in words) [3]: Not Active
